# Columns and labels:
# [1] = tested on: CHSE (Chinook Salmon Embryo); details: 24 h
# Description: δ-aminolevulinic acid feed were prepared to 1.0 M concentration (0. 167 g/mL HBSS) and diluted by 10-fold dilution method. 100 μl of each fish cell line suspension of 2.5×10^5 were placed into 96-well microplate and then, 100 μl of each of the resulting diluted solution, 4 well/dilution unit, were added respectively. Fish cell lines, which were used for this cell toxicity experiment of δ-aminolevulinic acid, were RTG-2 (Rainbow Trout Gonad), FHM (Fathead Minnow Epithelioma) and CHSE (Chinook Salmon Embryo) lotted out from Dr. M. Yoshimizu of the Department of Fisheries, Hokkaido University, Japan. For these experimental cells, 100 U/mL penicillin (Sigma), 100 μl/mL streptomycin (Sigma) and MEM media supplemented with 5% fetal bovine serum (FBS, Gibco) for cell culture were used. Cultured cells in 96-well microplate was incubated for 3 hrs at 15° C. and δ-aminolevulinic acid were added to wells at amounts of 100 μl of 0, 1.0, 10, 50 and 100 mM and incubated for 24 hrs at 18° C. As a control group, instead of δ-aminolevulinic acid, HBSS was added at the same amount. […] Absorbance was measured with an ELISA reader at 570 μl.
# Edwardsiella tarda [2] = test: Treatment effect of infected fry by oral administration in feed; assay type: in vivo, Sebastes schlegeli; details: 50 fish, Bastardhalibut
# Description: (§1) In this example, fry of Bastardhalibut and Sebastes schlegeli (mean body weight 2 g), 50 per each breeding tank, were preliminary-bred for 1 week and stabilized. […] The artificial infection methods were carried out through the digestion method. Pathogenic organisms were applied into fish tanks and introduced into seawater for an hour, wherein the concentration of organisms adjusted to 10^4 CFU/mL. Treatment conditions are as follows; after artificial infection, infected fish were moved to fish tanks and kept in the infection period for 3 days. On the fourth day of infection, 0.1˜50 ppm of δ-aminolevulinic acid for feed were added. The fish were bred for 2 weeks after exchanging with clean seawater and the mortality of fish according to infection was monitored. In the control groups, after each bacteria were identically infected through digestion method, mortality of Bastardhalibut and Sebastes schlegeli according to bacteria infection was identified while breeding with marketing assorted feed without δ-aminolevulinic acid. As a result of this experiment, δ-aminolevulinic acid-treated groups have shown high viability in both Bastardhalibut (Table 20˜Table 23) and Sebastes schlegeli (Table 24˜Table 27).
# Vibrio anguillarum = test: as above; assay type: in vivo, Sebastes schlegeli; details: 50 fish, Bastardhalibut
# Description: as §1
# Staphylococcus epidermis = test: as above; assay type: in vivo, Sebastes schlegeli; details: 50 fish, Bastardhalibut
# Description: as §1
# Staphylococcus sp. = test: as above; assay type: in vivo, Sebastes schlegeli; details: 50 fish, Bastardhalibut
# Description: as §1
# Pseudomonas sp. = test: as above; assay type: in vivo, Sebastes schlegeli; details: 50 fish, Bastardhalibut
# Description: as §1
# Streptococcus sp. [3] = test: as above; assay type: in vivo, Sebastes schlegeli; details: 50 fish, Bastardhalibut
# Description: as §1
# Birnavirus = test: Treatment effect on eel disease of Birnavirus (field); assay type: in vivo; details: 0.1˜10 ppm added to the farm; after 3 weeks administration
# Description: In the example, the experiment was carried out in the field at the Eel Aguacultural Farm, Gochang and Kunsan, in Chunbuk, Korea. Eels were dead by infection of Birnavirus, which was easely confirmed by microscopical or electron microscopical observation.
# ALA, at the concentration range of 0.1˜10 ppm was added to the farm for 3 months. After 3 weeks administration, motality was decreased to less than 10% (1˜2kg).
# Scutica = test: Application to Scutica-infected seedling nursery; assay type: in vivo, flatfish; details: 30 ppm formalin day 1, then 1 ppm for 2 hrs on days 2 and 3
# Description: Seedling was produced in flatfish seedling nursery and flatfish fry in seedling nursery, where marketing had stopped due to the infection of Scutica in a marketing stage (the length 5˜6 cm). They were treated with δ-aminolevulinic acid made by the inventors. Seriously infected fish were collected from seedling nursery and contained in water tanks and treated. On the first day, the fish were treated with 30 ppm formalin and, on the second and third day, were treated δ-aminolevulinic acid at concentration of 1 ppm for 2 hrs. […] Cultivation in a water tank of a fish farm where the ozone treatment system, which can control pathogenic organisms in seawater for cultivating, was applied has shown possibility of normal cultivation.
# Edwardsiella tarda [4] = test: Proliferation inhibition of pathogenic bacteria in BHI broth (620 nm); assay type: cell-based; details: product on the market (Sigma)
# Description: (§2) Pathogenic index bacteria used in this experiment are Edwardsiella tard, Streptococcus sp., Staphylococcus sp., Staphylococcus epidermidis, Pseudomonas sp., Vibrio anguillarum which are collected from the marine fish farm nearby Yeosu. In solid culture, they were cultured in TSA (tryptic soy agar) supplemented with 0.2% NaCl flat media and in liquid culture, they were prepared by culturing in BHI broth for 24 hrs and setting the O.D. value as 1.0. δ-aminolevulinic acid used in this experiment were one on the market (Sigma) and one formulated by inventors of the present invention (Korean patent application No. 1998-41898). Each 0.167 g δ-aminolevulinic acid were dissolved in 1.0 mL sterilized distilled water was used as undiluted solution. 1.0 M δ-aminolevulinic acid was 2-fold diluted with BHI broth by stages up to 64-fold and prepared for test solution to examine pathogenic bacteria proliferation-prohibiting effect. […] In control group, instead of δ-aminolevulinic acid, BHI broth bacteria suspension were mixed with (1:1) and then observed with the same method above. MIC assay by δ-aminolevulinic acid for major pathogenic bacteria of marine cultivating fishes, Edwardsiella tard, Streptococcus sp., Staphylococcus sp., Staphylococcus epidermidis, Pseudomonas sp., Vibrio anguillarum was carried out by flat drug disc method. 100 μL of each bacteria in a culture solution was mixed with fixed amount of top agar and coated to TSA agar. 1.0 M δ-aminolevulinic acid solution was diluted by 2 folds in PBS and 10 μL of each dilution were absorbed to sterilized disc. After incubation at 23˜25° C. for 2˜3 days, antibacterial effect was indicated by measuring the size (mm) of clear zone. In control group, PBS was absorbed into disc instead of δ-aminolevulinic acid dilution solution with the same amount and observed. From the result of this experiment using δ-aminolevulinic acid on the market, proliferation-inhibiting effects of pathogenic bacteria according to δ-aminolevulinic acid concentration are shown in Table 2a (Edwardsiella tard) and Table 2b (Streptococcus sp.). Below 1/32 fold (31 mM) of δ-aminolevulinic acid dilution rate, proliferation of both bacteria was inhibited. […] The experimental result of δ-aminolevulinic acid prepared by the inventors has shown in Table 3 and no difference in effects from δ-aminolevulinic acid on the market.
# Streptococcus sp. [5] = test: as above; assay type: cell-based; details: product on the market (Sigma)
# Description: as §2
# [6] = feed 0.1 ppm from 4th day of infection
# [7] = feed 1.0 ppm from 4th day of infection
# [8] = feed 10 ppm from 4th day of infection
# [9] = feed 50 ppm from 4th day of infection
# [10] = above 1/64 fold (16 mM) dilution rate
# [11] = below 1/32 fold (31 mM) dilution rate, 24 hrs, 25° C.
structure (smiles),measurement,setting,value
NCC(=O)CCC(=O)O [δ-aminolevulinic acid],safe range of toxicity,[1],below 10 mM
same,Viability,Edwardsiella tarda [2]; [6],52%
same,Viability,Edwardsiella tarda [2]; [7],62%
same,Viability,Edwardsiella tarda [2]; [8],68%
same,Viability,Edwardsiella tarda [2]; [9],88%
same,Viability,Vibrio anguillarum; [6],50%
same,Viability,Vibrio anguillarum; [7],74%
same,Viability,Vibrio anguillarum; [8],84%
same,Viability,Vibrio anguillarum; [9],86%
same,Viability,Staphylococcus epidermis; [6],36%
same,Viability,Staphylococcus epidermis; [7],63%
same,Viability,Staphylococcus epidermis; [8],64%
same,Viability,Staphylococcus epidermis; [9],86%
same,Viability,Staphylococcus sp.; [6],48%
same,Viability,Staphylococcus sp.; [7],70%
same,Viability,Staphylococcus sp.; [8],78%
same,Viability,Staphylococcus sp.; [9],88%
same,Viability,Pseudomonas sp.; [6],52%
same,Viability,Pseudomonas sp.; [7],78%
same,Viability,Pseudomonas sp.; [8],86%
same,Viability,Pseudomonas sp.; [9],84%
same,Viability,Streptococcus sp. [3]; [6],44%
same,Viability,Streptococcus sp. [3]; [7],66%
same,Viability,Streptococcus sp. [3]; [8],72%
same,Viability,Streptococcus sp. [3]; [9],82%
same,mortality,Birnavirus,less than 10%
same,examination of infection through sampling of fish body,Scutica; after 2 weeks of cultivation,no infection by Scutica
same,vitality of treated fish,Scutica; after 1 day of treatment,highly improved
same,proliferation of bacteria,Edwardsiella tarda [4]; [10],no significant difference from the control group
same,proliferation of bacteria,Edwardsiella tarda [4]; [11],inhibited
same,proliferation of bacteria,Streptococcus sp. [5]; [10],no significant difference from the control group
same,proliferation of bacteria,Streptococcus sp. [5]; [11],inhibited
